Laboratory results reported in patent publication US20090291857A1, “METHODS TO IDENTIFY INHIBITORS OF THE UNFOLDED PROTEIN RESPONSE” (THE BOARD OF TRUSTEES OF THE LELAND STANFORD JUNIOR …, priority 2006, published 2009).

How the values were obtained:
CHOP/GADD153 = CHOP/GADD153 expression in hypoxic HT1080 cells (Western blot); assay type: cell-based, human; details: 2.5 μM, hypoxia 6-12 hours
Description: A. Effect of irestatin 9389 on PERK and ATF6 pathways. HT1080 cells were treated with vehicle alone (lanes 1-4) or 2.5 μM irestatin 9389 (lanes 5-8) and cultured under aerobic conditions for 18 hours (N) or shifted to hypoxia for the indicated times. Protein lysates were analyzed by Western blot analysis using antisera specific for ATF6 (top), CHOP/GADD153 (middle) or actin (bottom). Arrow indicates the cleaved, transcriptionally active form of ATF6. B. Cleavage of caspase-3 in irestatin-treated cells under hypoxia. HT1080 cells were cultured in normoxia (N) or under hypoxia for 36 hours (H 36) in absence or presence of irestatin 9389 (2.5 μM). Arrows indicate proteolytically cleaved caspase-3. C. Colony formation assay. HT1080 cells were treated as in B under normoxia (N) or hypoxia for 48 hours (H 48). Cells were harvested, counted, and allowed to grow under normal culture conditions for 11-12 days. Colonies were visualized with crystal violet staining. D. Quantification of clonogenic survival assay. Values represent the mean+/−SEM from at least 4 independent experiments. E. TUNEL staining of cells treated as in C. F. Quantification of TUNEL-positive cells. Values represent the mean+/−SEM from at least 3 experiments. […] Cells were harvested at the indicated times and counted by hemocytometer. Values represent the mean calculated from triplicate experiments +/−SEM. […]

[1] = Analysis of blood chemistry and cell composition; assay type: in vivo, mouse
Description: Complete blood counts (CBC's) and clinical chemistry panels were performed on blood obtained by cardiac puncture after euthanasia with CO2. Gross necropsies were performed, all major viscera were harvested, fixed in 10% buffered neutral formalin, routinely processed for paraffin embedding, and stained with hematoxylin and eosin (H&E). Sections were analyzed by a board-certified veterinary pathologist (DMB).
The increased sensitivity of irestatin-treated cells to hypoxic stress in vitro indicate that selective inhibition of IRE1α signaling could impact tumor growth. […] In contrast, XBP-1s was not detected in normal pancreas specimens (0/20), and infrequently observed in chronic pancreatitis (1/29) (FIG. 15). To explore the effects to irestatin 9389 in vivo, we first established animal dosing parameters using real-time bioluminescence imaging of SCID mice that had been implanted subcutaneously (s.c.) with tumor cells stably expressing the XBP-luciferase reporter. […] The XBP-luciferase signal returned to basal levels by 24 hours after treatment. […] (FIG. 16).

Cc1csc(NC(=O)CSc2nc3c(c(C(F)(F)F)c2C#N)CCC3)n1 [Compound 9389]
expression of CHOP/GADD153 (CHOP/GADD153): increased | fasting blood glucose levels versus vehicle ([1]; 50 mg/kg): no significant difference | HCT ([1]; mean, irestatin-treated mice, complete blood count): 47% | Total Bilirubin ([1]; mean, irestatin-treated mice, terminal cardiac blood): 0.3 mg/dL
